US9157087B2, “Inducible plant promoters and the use thereof” (University of Tennessee Research Foundation, priority 2012, dated 2015)

Tested on: transgenic soybean hairy roots
Assay: Inducibility of ppor RFP reporter by chemical treatments (SA, ethephon, MeJA) in transgenic soybean hairy roots
Assay type: cell-based, soybean line TN02-275
Settings: 4 mg/ml ethephon (ethylene releasing chemical), 3 days; listed as Promoter 2.3

Sequence: ATATAATTAAGT (listed as DNA, chemistry not fully specified) [Motif 2.3, 12 bp SCN-inducible promoter motif, tested as tetramerized repeat 5′ of a minimal CaMV 35S promoter]
- Inducibility by Effectors ERE: induced to a much lower degree
